ChEMBL document CHEMBL5338717, “Discovery of novel PDE4 inhibitors targeting the M-pocket from natural mangostanin with improved safety for the treatment of Inflammatory Bowel Diseases” (Eur J Med Chem, 2022)
Calls of active or inactive are those of the source. The rule behind the calls is not given here.

How the values were obtained:
[1] = Metabolic stability in rat liver microsomes assessed as half life; type: ADME, Microsome
[2] = biological target: T1, 3',5'-cyclic-AMP phosphodiesterase 4D (Homo sapiens, UniProt Q08499); experiment: Inhibition of recombinant PDE4D2 (86 to 413 residues) (unknown origin) expressed in Escherichia coli BL21 using [3H]cAMP as substrate incubated for 15 mins by liquid scintillation method
[3] = Toxicity in twelve hrs fasted Beagle dog assessed as emesis at 1 mg/kg,po and measured upto 180 mins; type: organism-based, Canis lupus familiaris; details: in vivo, 3 h
Mus musculus [4] = experiment: Anti-inflammatory bowel disease activity in DSS-induced inflammatory bowel disease C57BL/6 mouse assessed as decrease in neutrophil infiltration in colon at 25 mg/kg, iv BID and measured after 8 days by Haematoxylin and eosin staining based microscopy; type: functional, organism-based; details: time 8.0 day
Mus musculus [5] = experiment: Anti-inflammatory bowel disease activity in DSS-induced inflammatory bowel disease C57BL/6 mouse model assessed as decrease in TNF-alpha mRNA expression level in colon at 25 mg/kg, iv BID and measured after 8 days by real-time PCR analysis; type: functional, organism-based; details: time 8.0 day
Mus musculus [6] = experiment: Anti-inflammatory bowel disease activity in DSS-induced inflammatory bowel disease C57BL/6 mouse model assessed as decrease in rectal bleeding by measuring disease activity index score at 25 mg/kg, iv BID and measured upto 8 days by Haem-occult test; type: functional, organism-based; details: time <= 8.0 day
Mus musculus [7] = experiment: Anti-inflammatory bowel disease activity in DSS-induced inflammatory bowel disease C57BL/6 mouse model assessed as decrease in IL-6 mRNA expression level in colon at 25 mg/kg, iv BID and measured after 8 days by real-time PCR analysis; type: functional, organism-based; details: time 8.0 day
[8] = Inhibition of PDE7 (unknown origin); parameters: species or system Homo sapiens
Mus musculus [9] = experiment: Anti-inflammatory bowel disease activity in DSS-induced inflammatory bowel disease C57BL/6 mouse model assessed as decrease in loss of crypt architecture in colon at 25 mg/kg, iv BID and measured after 8 days by Haematoxylin and eosin staining based microscopy; type: functional, organism-based; details: time 8.0 day
Mus musculus [10] = experiment: Anti-inflammatory bowel disease activity in DSS-induced inflammatory bowel disease C57BL/6 mouse model assessed as decrease in IL-10 mRNA expression level in colon at 25 mg/kg, iv BID and measured after 8 days by real-time PCR analysis; type: functional, organism-based; details: time 8.0 day
Mus musculus [11] = experiment: Anti-inflammatory bowel disease activity in DSS-induced inflammatory bowel disease C57BL/6 mouse model assessed as decrease in diarrhoea by measuring disease activity index score at 25 mg/kg, iv BID and measured upto 8 days; type: functional, organism-based; details: time <= 8.0 day
Mus musculus [12] = experiment: Anti-inflammatory bowel disease activity in DSS-induced inflammatory bowel disease C57BL/6 mouse model assessed as increase in colon length at 25 mg/kg, iv BID and measured upto 8 days; type: functional, organism-based; details: time <= 8.0 day
[13] = biological target: T1, 3',5'-cyclic-AMP phosphodiesterase 4D; experiment: Inhibition of PDE4D2 (unknown origin)
Mus musculus [14] = experiment: Anti-inflammatory bowel disease activity in DSS-induced inflammatory bowel disease C57BL/6 mouse model assessed as decrease in mucosal ulceration in colon at 25 mg/kg, iv BID and measured after 8 days by Haematoxylin and eosin staining based microscopy; type: functional, organism-based; details: time 8.0 day
Mus musculus [15] = experiment: Anti-inflammatory bowel disease activity in DSS-induced inflammatory bowel disease C57BL/6 mouse model assessed as decrease in goblet cells in colon at 25 mg/kg, iv BID and measured after 8 days by Haematoxylin and eosin staining based microscopy; type: functional, organism-based; details: time 8.0 day
Mus musculus [16] = experiment: Anti-inflammatory bowel disease activity in DSS-induced inflammatory bowel disease C57BL/6 mouse model assessed as decrease in epithelial damage in colon at 25 mg/kg, iv BID and measured after 8 days by Haematoxylin and eosin staining based microscopy; type: functional, organism-based; details: time 8.0 day
Mus musculus [17] = experiment: Anti-inflammatory bowel disease activity in DSS-induced inflammatory bowel disease C57BL/6 mouse model assessed as decrease in IFN-gamma mRNA expression level in colon at 25 mg/kg, iv BID and measured after 8 days by real-time PCR analysis; type: functional, organism-based; details: time 8.0 day
Mus musculus [18] = experiment: Anti-inflammatory bowel disease activity in DSS-induced inflammatory bowel disease C57BL/6 mouse model assessed as decrease in body weight loss by measuring disease activity index score at 25 mg/kg, iv BID and measured upto 8 days; type: functional, organism-based; details: time <= 8.0 day
Mus musculus [19] = experiment: Anti-inflammatory bowel disease activity in DSS-induced inflammatory bowel disease C57BL/6 mouse model assessed as increase in body weight at 25 mg/kg, iv BID and measured after 8 days […]; type: functional, organism-based; details: time 8.0 day

T1 sequence (Q08499 whole entry, the tested form may be a part): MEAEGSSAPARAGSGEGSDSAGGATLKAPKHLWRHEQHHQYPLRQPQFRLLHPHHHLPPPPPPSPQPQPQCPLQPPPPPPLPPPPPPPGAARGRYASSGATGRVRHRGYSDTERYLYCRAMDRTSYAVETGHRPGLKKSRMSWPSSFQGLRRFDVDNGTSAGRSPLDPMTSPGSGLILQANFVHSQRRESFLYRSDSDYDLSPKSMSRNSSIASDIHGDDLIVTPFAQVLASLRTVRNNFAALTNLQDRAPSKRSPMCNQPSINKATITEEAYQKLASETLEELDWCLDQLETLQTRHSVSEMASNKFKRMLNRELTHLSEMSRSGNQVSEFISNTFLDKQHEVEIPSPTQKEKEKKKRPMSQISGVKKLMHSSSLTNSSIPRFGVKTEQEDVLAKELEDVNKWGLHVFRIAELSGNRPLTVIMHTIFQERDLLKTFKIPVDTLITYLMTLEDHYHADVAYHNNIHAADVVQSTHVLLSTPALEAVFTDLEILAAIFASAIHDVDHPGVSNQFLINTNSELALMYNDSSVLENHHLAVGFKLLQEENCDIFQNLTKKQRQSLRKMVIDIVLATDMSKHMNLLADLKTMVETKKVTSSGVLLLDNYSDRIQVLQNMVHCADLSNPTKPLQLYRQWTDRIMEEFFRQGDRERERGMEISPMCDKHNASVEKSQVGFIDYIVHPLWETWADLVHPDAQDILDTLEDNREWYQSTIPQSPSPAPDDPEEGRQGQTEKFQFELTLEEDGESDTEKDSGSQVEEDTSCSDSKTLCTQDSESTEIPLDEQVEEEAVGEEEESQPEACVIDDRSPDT

SMILES	half-life [1] [min]	IC50 [2] [nM]	other results
CCOc1cc2oc3cc4c(c(OCc5ccncc5)c3c(=O)c2c(CC=C(C)C)c1OC)C=CC(C)(C)O4	2.98	10.2	–
COc1c(OC(C)C)cc2oc3cc4c(c(OCc5ccncc5)c3c(=O)c2c1CC=C(C)C)C=CC(C)(C)O4	78	5.2	–
COc1c(O)cc2oc3cc4c(c(OCc5ccccc5)c3c(=O)c2c1CC=C(C)C)C=CC(C)(C)O4	–	> 1000	–
COc1c(O)cc2oc3cc4c(c(OCc5cccnc5)c3c(=O)c2c1CC=C(C)C)C=CC(C)(C)O4	–	> 1000	–
COc1c(OCc2ccccc2)cc2oc3cc4c(c(OCc5ccncc5)c3c(=O)c2c1CC=C(C)C)C=CC(C)(C)O4	315	1.4	–
COc1c(OCc2ccc(F)cc2)cc2oc3cc4c(c(OCc5cccnc5)c3c(=O)c2c1CC=C(C)C)C=CC(C)(C)O4	–	8.2	–
COc1c(OCc2ccc(F)cc2)cc2oc3cc4c(c(OCC5CCNCC5)c3c(=O)c2c1CC=C(C)C)C=CC(C)(C)O4	–	12.4	–
COc1c(O)cc2oc3cc4c(c(O)c3c(=O)c2c1CC=C(C)C)C=CC(C)(C)O4 [MANGOSTANIN]	8.1	–	–
COc1cc2oc3cc4c(c(OCc5ccncc5)c3c(=O)c2c(CC=C(C)C)c1OC)C=CC(C)(C)O4	2.08	11.7	–
COc1c(OCc2cccc(F)c2)cc2oc3cc4c(c(OCc5ccccn5)c3c(=O)c2c1CC=C(C)C)C=CC(C)(C)O4	–	9.3	–
COc1c(OCc2ccc(F)cc2)cc2oc3cc4c(c(OCc5ccccn5)c3c(=O)c2c1CC=C(C)C)C=CC(C)(C)O4	–	20.2	–
COc1ccc(C2CNC(=O)C2)cc1OC1CCCC1 (stereo not drawn) [ROLIPRAM]	–	–	Activity [3]: Toxic
OCCN(CCO)c1nc(N2CCCCC2)c2nc(N(CCO)CCO)nc(N3CCCCC3)c2n1 [DIPYRIDAMOLE]	–	–	Activity (Mus musculus [4]): Active; Activity (Mus musculus [5]): Active; Activity (Mus musculus [6]): Active; Activity (Mus musculus [7]): Active; IC50 [8]: 600 nM; Activity (Mus musculus [9]): Active; Activity (Mus musculus [10]): Active; Activity (Mus musculus [11]): Active; Activity (Mus musculus [12]): Active; IC50 [13]: 2800 nM; Activity (Mus musculus [14]): Active; Activity (Mus musculus [15]): Active; Activity (Mus musculus [16]): Active; Activity (Mus musculus [17]): Active; Activity (Mus musculus [18]): Active; Activity (Mus musculus [19]): inactive
COc1c(OCc2ccncc2)cc2oc3cc4c(c(OCc5ccncc5)c3c(=O)c2c1CC=C(C)C)C=CC(C)(C)O4	16	10.6	–
COc1c(OCc2cccc(F)c2)cc2oc3cc4c(c(OCc5ccncc5)c3c(=O)c2c1CC=C(C)C)C=CC(C)(C)O4	–	7.8	–
COc1c(O)cc2oc3cc4c(c(OCc5ccncc5)c3c(=O)c2c1CC=C(C)C)C=CC(C)(C)O4	6.7	25	–
COc1c(O)cc2oc3cc4c(c(OCc5ccccn5)c3c(=O)c2c1CC=C(C)C)C=CC(C)(C)O4	0.9	203	–
COc1c(OCc2ccc(F)cc2)cc2oc3cc4c(c(OCc5ccncc5)c3c(=O)c2c1CC=C(C)C)C=CC(C)(C)O4	33	1.4	–
COc1c(OCc2ccccn2)cc2oc3cc4c(c(OCc5ccccn5)c3c(=O)c2c1CC=C(C)C)C=CC(C)(C)O4	3	6.5	–
